Reference: article PMC7688903 (Frontiers in Microbiology, 2020)
Values after ≈ are worked out from the molar mass of the structure shown. Marks after values point to notes of the source that are not given here. Where a SMILES comes first, the peptide text is derived from it. [ ]: non-standard residue; d: D form. hArg = N=C(N)NCCCC[C@H](N)C(=O)O; 2Thi = N[C@@H](Cc1cccs1)C(=O)O; Dab = NCC[C@H](N)C(=O)O; Dap = NC[C@H](N)C(=O)O

Assays:
[1] = test system: proteases secreted by S. aureus ATCC 25923; test: in vitro; details: S. aureus ATCC 25923 culture supernatant, pH 8
How it was run: (§1)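 Cell-free culture supernatants (overnight, 37°C; MH broth for bacteria, 2% tryptone/2% dextrose for yeast) were centrifuged, adjusted to pH 8.0 and 0.22 μm filtered. Peptides at 0.5 mg/mL were incubated in supernatant 24 h at 37°C; remaining intact peptide measured by RP-HPLC, with peptide-free supernatant as negative control.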

[2] = test system: proteases secreted by C. albicans ATCC 10231; test: in vitro; details: C. albicans ATCC 10231 culture supernatant, pH 8
How it was run: as §1

[3] = test system: carbapenem-resistant A. baumannii (CRAB) SIPI-025; format: cell-based, Acinetobacter baumannii; details: carbapenem-resistant (CRAB) SIPI-025, 20 h
How it was run: (§2)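 Inocula were set to 0.5 McFarland and diluted to ~5 × 10^5 CFU/mL (bacteria, MH broth) or 0.5 × 10^3 to 2.5 × 10^3 CFU/mL (yeast, RPMI 1640). Peptide twofold dilutions were added, plates incubated 20 h at 37°C or 48 h at 35°C, then scored by eye.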

A. baumannii ATCC 19606 = format: cell-based, Acinetobacter baumannii; details: ATCC 19606, 20 h
How it was run: as §2

E. coli ATCC 25922 = format: cell-based, Escherichia coli; details: ATCC 25922, 20 h
How it was run: as §2

[4] = test system: carbapenem-resistant P. aeruginosa (CRPA) SIPI-012; format: cell-based, Pseudomonas aeruginosa; details: carbapenem-resistant (CRPA) SIPI-012, 20 h
How it was run: as §2

P. aeruginosa ATCC 27853 = format: cell-based, Pseudomonas aeruginosa; details: ATCC 27853, 20 h
How it was run: as §2

S. aureus ATCC 25923 = test: microbe, parasite or virus in culture; format: cell-based, Staphylococcus aureus; details: ATCC 25923, 20 h
How it was run: as §2

C. albicans ATCC 10231 = test: microbe, parasite or virus in culture; format: cell-based, Candida albicans; details: ATCC 10231, 48 h
How it was run: as §2

human erythrocytes = test: Hemolytic activity assay; format: cell-based; details: human RBC in PB, 37°C, 1 h, OD420, total lysis control 0.1% SDS, three technical replicates
How it was run: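 Washed RBCs from a healthy volunteer were incubated with peptides at 32–128 μM for 1 h at 37°C in PB. Hemoglobin release into the supernatant was read as OD420 against total lysis with 0.1% SDS, in three technical replicates.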

RAW 264.7 cells = test: Cell viability assay (MTT); format: cell-based, mouse; details: 1–128 μM peptide in DMEM with 4% FBS, 42 h, 595 nm, triplicate
How it was run: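 RAW 264.7 cells (1 × 10^4/well, DMEM + 10% FBS) grown overnight to 80% confluency, then exposed to peptides at 1–128 μM in DMEM with 4% FBS for 42 h at 37 °C. MTT read at 595 nm; viability relative to medium-only controls, triplicate, IC50 as 50% loss of viability.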

human plasma proteases = test: in vitro
Description: The peptides were mixed with plasma from healthy volunteers to a final concentration of 0.1 mg/mL and incubated at 37°C. Aliquots (20 or 40 μL) were removed after 0, 2, 4, 6, 8, 12, 24, and 36 h, mixed with 0.05% TFA to a final concentration of 0.01 mg/mL, and incubated on ice for 10 min. After centrifugation (12,000 × g, 5 min), the supernatant was stored at −20°C. The samples were analyzed as described in section “Hydrophobicity” and quantified as described in section “Stability Toward Tryptic Degradation.” All stability tests were performed at least in triplicate. The identities of the metabolites after 12 h of degradation by plasma proteases were determined by LC-MS on a Waters Acquity UPLC-QDa system.

[5] = test system: proteases secreted by A. baumannii ATCC 19606; test: in vitro; details: A. baumannii ATCC 19606 culture supernatant, pH 8
How it was run: as §1

[6] = test system: proteases secreted by P. aeruginosa ATCC 27853; test: in vitro; details: P. aeruginosa ATCC 27853 culture supernatant, pH 8
How it was run: as §1

SMILES | remaining at 24 h, 0.5 mg/mL ([1]; Staphylococcus aureus) [%] | remaining at 24 h, 0.5 mg/mL ([2]; Candida albicans) [%] | MIC [3] [µg/mL] | MIC (A. baumannii ATCC 19606) [µg/mL] | MIC (E. coli ATCC 25922) [µg/mL] | MIC [4] [µg/mL] | MIC (P. aeruginosa ATCC 27853) [µg/mL] | MIC (S. aureus ATCC 25923) [µg/mL] | MIC (C. albicans ATCC 10231) [µg/mL] | Hemolysis rate (%) (human erythrocytes; 64 μM) | Hemolysis rate (%) (human erythrocytes; 128 μM) | IC50 (RAW 264.7 cells) [µM] | metabolised at 2 h, 0.1 mg/mL (human plasma proteases) [%] | metabolised at 4 h, 0.1 mg/mL (human plasma proteases) [%] | remaining at 24 h, 0.5 mg/mL ([5]; Acinetobacter baumannii) [%] | remaining at 24 h, 0.5 mg/mL [6] [%] | remaining at 24 h, 0.5 mg/mL [1] [%] | remaining at 24 h, 0.5 mg/mL [5] [%] | remaining at 24 h, 0.5 mg/mL [2] [%]
CC(C)C[C@H](NC(=O)[C@H](Cc1ccc(O)cc1)NC(=O)[C@H](CCN)NC(=O)[C@H](CC(C)C)NC(=O)[C@H](CC(C)C)NC(=O)[C@H](CCN)NC(=O)[C@H](CN)NC(=O)[C@H](Cc1cccs1)NC(=O)[C@H](CC(C)C)NC(=O)[C@H](CCCNC(=N)N)NC(=O)[C@@H](N)CCN)C(=O)N[C@@H](CCCCNC(=N)N)C(=O)N[C@@H](CCN)C(=O)N[C@@H](Cc1ccccc1)C(N)=O [UP15] (H-[Dab]RL[2Thi][Dap][Dab]LL[Dab]YL[hArg][Dab]F-NH2) | 54.6 ± 4.19 | 21.1 ± 5.28 | 2 (≈ 1.15 µM) | 2 (≈ 1.15 µM) | 2 (≈ 1.15 µM) | 4 (≈ 2.29 µM) | 1 (≈ 0.573 µM) | 1 (≈ 0.573 µM) | 4 (≈ 2.29 µM) | 54.16 ± 2.02 | 97.86 ± 3.07 % | 28.7 ± 3.52 | – | – | – | – | – | – | –
CC(C)C[C@H](NC(=O)[C@H](Cc1ccc(O)cc1)NC(=O)[C@H](CCCCN)NC(=O)[C@H](CC(C)C)NC(=O)[C@H](CC(C)C)NC(=O)[C@@H](CCCCN)NC(=O)[C@@H](CCCCN)NC(=O)[C@H](Cc1ccccc1)NC(=O)[C@H](CC(C)C)NC(=O)[C@@H](CCCNC(=N)N)NC(=O)[C@H](N)CCCCN)C(=O)N[C@@H](CCCNC(=N)N)C(=O)N[C@H](CCCCN)C(=O)N[C@@H](Cc1ccccc1)C(N)=O [DP05] (H-[dK][dR]LF[dK][dK]LLKYLR[dK]F-NH2) | 66.7 ± 5.9 | – | 2 (≈ 1.06 µM) | 1 (≈ 0.532 µM) | 2 (≈ 1.06 µM) | 8 (≈ 4.25 µM) | 1 (≈ 0.532 µM) | 1 (≈ 0.532 µM) | 2 (≈ 1.06 µM) | 30.09 ± 1.56 | 45.07 ± 2.93% | 32.7 ± 3.44 | > 40 | > 50 | 31.7 ± 9 | – | – | – | –
CC(C)C[C@H](NC(=O)[C@H](Cc1ccc(O)cc1)NC(=O)[C@H](CCN)NC(=O)[C@H](CC(C)C)NC(=O)[C@H](CC(C)C)NC(=O)[C@H](CN)NC(=O)[C@H](CN)NC(=O)[C@H](Cc1ccccc1)NC(=O)[C@H](CC(C)C)NC(=O)[C@H](CCCCNC(=N)N)NC(=O)[C@@H](N)CN)C(=O)N[C@@H](CCCCNC(=N)N)C(=O)N[C@@H](CCN)C(=O)N[C@@H](Cc1ccccc1)C(N)=O [UP14] (H-[Dap][hArg]LF[Dap][Dap]LL[Dab]YL[hArg][Dab]F-NH2) | – | – | 4 (≈ 2.32 µM) | 4 (≈ 2.32 µM) | 2 (≈ 1.16 µM) | 8 (≈ 4.63 µM) | 2 (≈ 1.16 µM) | 0.5 (≈ 0.29 µM) | 4 (≈ 2.32 µM) | 66.51 ± 3.14 | 74.68 ± 1.34 % | 14 ± 2.67 | – | – | – | 27.6 ± 6.76 | 57.3 ± 6.54 | 12.9 ± 1.48 | –
CC(C)C[C@H](NC(=O)[C@H](Cc1ccc(O)cc1)NC(=O)[C@H](CCN)NC(=O)[C@H](CC(C)C)NC(=O)[C@H](CC(C)C)NC(=O)[C@H](CCN)NC(=O)[C@H](CCN)NC(=O)[C@H](Cc1ccccc1)NC(=O)[C@H](CC(C)C)NC(=O)[C@H](CCCCNC(=N)N)NC(=O)[C@@H](N)CCN)C(=O)N[C@@H](CCCCNC(=N)N)C(=O)N[C@@H](CCN)C(=O)N[C@@H](Cc1ccccc1)C(N)=O [UP13] (H-[Dab][hArg]LF[Dab][Dab]LL[Dab]YL[hArg][Dab]F-NH2) | 78.5 ± 3.39 | 34 ± 6.12 | 2 (≈ 1.13 µM) | 2 (≈ 1.13 µM) | 2 (≈ 1.13 µM) | 4 (≈ 2.26 µM) | 2 (≈ 1.13 µM) | 0.5 (≈ 0.283 µM) | 4 (≈ 2.26 µM) | 41.03 ± 1.38 | ∼100.00* % | 21.7 ± 4.14 | – | – | – | – | – | – | –
CC(C)C[C@H](NC(=O)[C@H](Cc1ccc(O)cc1)NC(=O)[C@H](CCN)NC(=O)[C@H](CC(C)C)NC(=O)[C@H](CC(C)C)NC(=O)[C@H](CCN)NC(=O)[C@H](CCN)NC(=O)[C@H](Cc1ccccc1)NC(=O)[C@H](CC(C)C)NC(=O)[C@H](CCCCNC(=N)N)NC(=O)[C@@H](N)CCN)C(=O)N[C@@H](CCCNC(=N)N)C(=O)N[C@@H](CCN)C(=O)N[C@@H](Cc1ccccc1)C(N)=O [UP12] (H-[Dab][hArg]LF[Dab][Dab]LL[Dab]YLR[Dab]F-NH2) | – | – | 4 (≈ 2.28 µM) | 2 (≈ 1.14 µM) | 2 (≈ 1.14 µM) | 4 (≈ 2.28 µM) | 2 (≈ 1.14 µM) | 1 (≈ 0.57 µM) | 4 (≈ 2.28 µM) | 45.13 ± 1.95 | ∼100.00* % | 21.2 ± 2.42 | – | – | – | 20.6 ± 4.3 | 69.5 ± 5.97 | – | 37.7 ± 5.24
